Source: patent US9090593B2, “Bicyclic compounds as Pim inhibitors” (AMGEN INC., priority 2010, dated 2015)
Read-outs that look alike come from different tables or passages of the source.

Columns and labels:
[1] = target: T1, full length recombinant Pim-2 protein (Homo sapiens, UniProt Q9P1W9); test: Pim-2 enzyme assay (HTRF, phosphorylation of biotinylated-BAD (S112) peptide); type: biochemical; details: read-out: Pim2_IC50
T1 construct: by full length recombinant Pim-1, Pim-2, or Pim-3 protein; hexahistidine tag followed by a thrombin cleavage site (N); made in house; host or cells: Sf9 (baculovirus) or E. coli (pET28)
T1 sequence (Q9P1W9 whole entry): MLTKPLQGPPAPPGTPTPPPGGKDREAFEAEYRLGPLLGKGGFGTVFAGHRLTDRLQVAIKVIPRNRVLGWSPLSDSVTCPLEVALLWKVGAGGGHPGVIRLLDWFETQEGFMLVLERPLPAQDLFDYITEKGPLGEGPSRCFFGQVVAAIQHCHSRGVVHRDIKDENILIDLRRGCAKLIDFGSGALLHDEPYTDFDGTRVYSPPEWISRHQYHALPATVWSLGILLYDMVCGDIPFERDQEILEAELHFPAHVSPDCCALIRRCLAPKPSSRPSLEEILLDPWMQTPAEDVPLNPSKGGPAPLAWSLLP
Procedure, shortened: (§1)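 Each full-length human Pim enzyme phosphorylates a biotinylated BAD (S112) peptide, and the product is sensed by Eu anti-phospho-BAD antibody with streptavidin-APC after quenching with 3 mM EDTA. Conditions: 60 mM Hepes pH 7.0, 0.05% BSA, 2 mM DTT.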

[2] = target: T2, Pim-1 stably transfected into the U2OS human osteogenic sarcoma line (Homo sapiens, UniProt P11309); test: Pim cell assay, phospho-BAD normalized against total BAD, U2OS stably transfected with Pim-1; type: cell-based
T2 construct: expressed in transfected cells; host or cells: U2OS human osteogenic sarcoma line
T2 sequence (P11309 whole entry): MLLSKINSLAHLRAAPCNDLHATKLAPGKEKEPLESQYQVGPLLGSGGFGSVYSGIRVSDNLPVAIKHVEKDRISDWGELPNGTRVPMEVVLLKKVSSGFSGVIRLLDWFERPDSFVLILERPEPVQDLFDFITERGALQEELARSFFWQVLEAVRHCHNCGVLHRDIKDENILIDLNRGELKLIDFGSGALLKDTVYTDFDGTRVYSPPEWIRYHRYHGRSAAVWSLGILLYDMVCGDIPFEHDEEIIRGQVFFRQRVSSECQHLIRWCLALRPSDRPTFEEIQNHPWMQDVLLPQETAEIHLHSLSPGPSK
Experimental: (§2) The cell lines used in the assay were generated by the stable transfection of either Pim-1 or Pim-2 into the U2OS human osteogenic sarcoma line. The assay for determination of the Pim activity in the engineered U2OS cell lines measures levels of phospho-BAD normalized against total BAD protein levels. It was conducted as follows:
(§3) The adherent cells were dissociated from the flasks using non-enzymatic cell dissociation solution (Sigma # C5914). […] The cells were then incubated overnight at 37° C., 5% CO2.
(§4) In addition to the 10-point dosing curve of the test compound, DMSO alone was run as the high control.
(§5) This dilution in DMSO was then diluted again into cell growth medium. Aliquots (12 uL) of the compound diluted in growth medium were then transferred to the appropriate wells of the 96-well plates containing cells to yield a final DMSO concentration of 0.3%.
(§6) The cell plates containing lysis buffer were then immediately stored at −70° C.
(§7) These prepared lysates were then assayed for phospho and total BAD according to the manufacturer's protocols (Meso Scale Diagnostics, Cat# K15103C-3 & # K15103D-3). The plates were read on the MSD Sector Imager 6000, and results were calculated according to the assay protocols ((% Phosphoprotein=((2×Phospho signal)/(Phospho signal+Total signal))×100)).

[3] = target: T3, full length recombinant Pim-1 protein (Homo sapiens, UniProt P11309); test: Pim-1 enzyme assay (HTRF, phosphorylation of biotinylated-BAD (S112) peptide); type: biochemical; details: read-out: Pim_1_IC50
T3 construct: by full length recombinant Pim-1, Pim-2, or Pim-3 protein; hexahistidine tag followed by a thrombin cleavage site (N); made in house; host or cells: Sf9 (baculovirus) or E. coli (pET28)
T3 sequence (P11309 whole entry): as above
Procedure, shortened: as §1

[4] = target: T4, Pim-2 stably transfected into the U2OS human osteogenic sarcoma line (Homo sapiens, UniProt Q9P1W9); test: Pim cell assay, phospho-BAD normalized against total BAD, U2OS stably transfected with Pim-2; type: cell-based
T4 construct: expressed in transfected cells; host or cells: U2OS human osteogenic sarcoma line
T4 sequence (Q9P1W9 whole entry): as the sequence (Q9P1W9 whole entry) above
Experimental: as §2, §3, §4, §5, §6, §7

[5] = U2OS stably transfected with Pim-1, phospho-BAD normalized against total BAD, 29 min incubation, read-out: Pim1_Cell_IC50_
[6] = U2OS stably transfected with Pim-2, phospho-BAD normalized against total BAD, 29 min incubation, read-out: Pim2_Cell_IC50_
[7] = U2OS cells stably transfected with Pim-2, phospho-BAD, high dose […], read-out: Pim2_Cell_IC50
[8] = U2OS cells stably transfected with Pim-1, phospho-BAD, high dose […], read-out: Pim1_Cell_IC50

Structure (SMILES) | IC50 [1] [µM] | IC50 [2, 5] [µM] | IC50 [3] [µM] | IC50 [4, 6] [µM] | also measured
Fc1cccc(F)c1-c1ccc2[nH]nc(-c3cncc(SC4CCCNC4)n3)c2c1 (single isomer, unassigned) [Example 414] | 0.06 | 1.54 | 0.007 | – | –
CC1CCNCC1Oc1cncc(-c2n[nH]c3ccc(-c4c(F)cccc4F)cc23)n1 (single isomer, unassigned) [Example 423] | 0.194 | 1.66 | 0.017 | > 31.6 | –
CC1(C)CNCCC1Oc1cncc(-c2n[nH]c3ccc(-c4c(F)cccc4F)cc23)n1 (single isomer, unassigned) [Example 432] | 0.114 | 2.41 | 0.02 | > 31.6 | –
CC1(C)CNCCC1Oc1cncc(-c2n[nH]c3ccc(-c4c(F)cccc4F)cc23)n1 (single isomer, unassigned) [Example 433] | 0.022 | 0.801 | 0.002 | > 10 | –
CC(C)Oc1cncc(-c2ccc3[nH]nc(-c4cncc(N5CCC(N)CC5)n4)c3c2)n1 [Example 5, 1-(6-(5-(6-isopropoxypyrazin-2-yl)-1H-indazol-3-yl)pyrazin-2-yl)piperidin-4-amine] | – | – | – | – | IC50 [4, 7]: 5.44 µM; IC50 ([1]; enzyme assay, Pim-2): 0.016 µM; IC50 [2, 8]: 0.045 µM
NC1CCN(c2cncc(-c3n[nH]c4ccc(-c5cnc6[nH]nc(C(F)(F)F)c6c5)cc34)n2)CC1 [Example 6, 1-(6-(5-(3-(trifluoromethyl)-1H-pyrazolo[3,4-b]pyridin-5-yl)-1H-indazol-3-yl)pyrazin-2-yl)piperidin-4-amine] | – | – | – | – | IC50 [4, 7]: > 31.6 µM; IC50 ([1]; enzyme assay, Pim-2): 0.035 µM; IC50 [2, 8]: 1.88 µM; IC50 ([3]; enzyme assay, Pim-1): 0.001 µM
COc1cncc(-c2ccc3[nH]nc(-c4ccnc(N5CCC(N)CC5)n4)c3c2)c1 [Example 30, 1-(4-(5-(5-Methoxypyridin-3-yl)-1H-indazol-3-yl)pyrimidin-2-yl)piperidin-4-amine] | – | – | – | – | IC50 ([4]; read-out: Pim2_Cell_IC50): 2.24 µM; IC50 ([1]; enzyme assay, Pim-2): 0.007 µM; IC50 ([2]; read-out: Pim1_Cell_IC50): 0.089 µM; IC50 ([3]; enzyme assay, Pim-1): 0.001 µM
NC1CCN(c2cncc(-c3n[nH]c4ccc(-c5cnc6[nH]ccc6c5)cc34)n2)CC1 [Example 57, 1-(6-(5-(1H-pyrrolo[2,3-b]pyridin-5-yl)-1H-indazol-3-yl)-2-pyrazinyl)-4-piperidinamine] | – | – | – | – | IC50 [4, 7]: > 31.6 µM; IC50 ([1]; enzyme assay, Pim-2): 0.01 µM; IC50 [2, 8]: 0.605 µM; IC50 ([3]; enzyme assay, Pim-1): 0.001 µM
Nc1cnnc(-c2ccc3[nH]nc(-c4cncc(N5CCC(N)CC5)n4)c3c2)c1 [Example 104, 6-(3-(6-(4-amino-1-piperidinyl)-2-pyrazinyl)-1H-indazol-5-yl)-4-pyridazinamine] | – | – | – | – | IC50 [4, 7]: > 31.6 µM; IC50 ([1]; enzyme assay, Pim-2): 0.001 µM; IC50 [2, 8]: 1.92 µM
NC1CCN(c2cncc(-c3n[nH]c4ccc(-c5cncc(C6CC6)n5)cc34)n2)CC1 [Example 109, 1-(6-(5-(6-cyclopropyl-2-pyrazinyl)-1H-indazol-3-yl)-2-pyrazinyl)-4-piperidinamine] | – | – | – | – | IC50 [4, 7]: 1.73 µM; IC50 ([1]; enzyme assay, Pim-2): 0.002 µM
c1cc2[nH]nc(-c3cncc(N[C@@H]4CCCNC4)n3)c2cc1-c1cncc(C2CC2)n1 [Example 243, 6-(5-(6-cyclopropyl-2-pyrazinyl)-1H-indazol-3-yl)-N-((3R)-3-piperidinyl)-2-pyrazinamine] | 0.008 | 0.099 | – | 5.59 | –
O=c1cc(-c2c[nH]c3ccc(-c4c(F)cccc4F)cc23)nc(N[C@@H]2CCCNC2)[nH]1 [Example 279, (R)-6-(5-(2,6-difluorophenyl)-1H-indol-3-yl)-2-(piperidin-3-ylamino)pyrimidin-4(3H)-one] | – | 2.4 | 0.001 | > 31.6 | –
c1cc(OC2CCC2)nc(-c2ccc3[nH]cc(-c4cncc(O[C@@H]5CCCNC5)n4)c3c2)c1 [Example 301] | 0.122 | 2.54 | 0.013 | – | –
c1cc2[nH]cc(-c3cncc(O[C@@H]4CCCNC4)n3)c2cc1-c1cncc(N2CCCC2)n1 [Example 302] | 0.189 | 0.995 | 0.009 | – | –
Cc1nccn1-c1cccc(-c2ccc3[nH]cc(-c4cncc(O[C@@H]5CCCNC5)n4)c3c2)n1 [Example 305] | 0.127 | 0.754 | 0.007 | – | –
Cc1ccn(-c2cccc(-c3ccc4[nH]cc(-c5cncc(O[C@@H]6CCCNC6)n5)c4c3)n2)n1 [Example 307] | 0.114 | 1.6 | 0.006 | – | –
CC(C)n1cc(-c2ccc3[nH]cc(-c4cncc(O[C@@H]5CCCNC5)n4)c3c2)cn1 [Example 308, 5-(1-(1-methylethyl)-1H-pyrazol-4-yl)-3-(6-((3R)-3-piperidinyloxy)-2-pyrazinyl)-1H-indole] | 0.076 | 0.16 | 0.008 | – | –
COc1ccc(-c2ccc3[nH]cc(-c4cncc(O[C@@H]5CCCNC5)n4)c3c2)cn1 [Example 310] | 0.041 | 0.295 | 0.006 | – | –

Structure (SMILES) | IC50 [1] [µM] | IC50 [2, 5] [µM] | IC50 [3] [µM] | IC50 [4, 6] [µM] | also measured
CC1(C)CC1c1ccc2[nH]cc(-c3cncc(O[C@@H]4CCCNC4)n3)c2c1 (some centres unmarked) [Example 312] | 0.031 | 1.31 | 0.009 | – | –
COc1cccc(-c2ccc3[nH]cc(-c4cncc(O[C@@H]5CCCNC5)n4)c3c2)c1 [Example 320] | 0.03 | 0.592 | 0.006 | – | –
c1cc(OCC2CC2)ncc1-c1ccc2[nH]cc(-c3cncc(O[C@@H]4CCCNC4)n3)c2c1 [Example 323] | 0.067 | 1.31 | 0.008 | – | –
COc1c(C)cc(-c2ccc3[nH]cc(-c4cncc(O[C@@H]5CCCNC5)n4)c3c2)cc1C [Example 331] | 0.111 | 1.28 | 0.008 | – | –
c1cc2[nH]nc(-c3cncc(NC4CCNCC4)n3)c2cc1-c1cncc(C2CC2)n1 [Example 369, 6-(5-(6-cyclopropyl-2-pyrazinyl)-1H-indazol-3-yl)-N-4-piperidinyl-2-pyrazinamine] | 0.001 | 0.083 | – | 3.7 | –
CC1(Oc2cncc(-c3n[nH]c4ccc(-c5c(F)cccc5F)cc34)n2)CCCNC1 (centres unmarked) [Example 417] | 0.335 | 1.48 | 0.015 | – | –
NC1CCN(c2cncc(-c3n[nH]c4ccc(-c5cncc(C6CC6)n5)cc34)n2)CC1 [Example 503, 1-(6-(5-(6-cyclopropyl-2-pyrazinyl)-1H-indazol-3-yl)-2-pyrazinyl)-4-piperidinamine] | 0.002 | 0.076 | – | 3.68 | –
NC1CCN(c2cncc(-c3n[nH]c4ccc(-c5cc6[nH]ccc6cn5)cc34)n2)CC1 [Example 504] | 0.127 | 7.56 | 0.005 | – | –
Nc1cncc(-c2ccc3[nH]nc(-c4cncc(N5CCC(N)CC5)n4)c3c2)n1 [Example 508] | 0.001 | 1.37 | – | > 31.6 | –
NC1CCN(c2cncc(-c3n[nH]c4ccc(-c5cncc(NC6CC6)n5)cc34)n2)CC1 [Example 509] | 0.006 | 0.051 | – | 4.23 | –
c1cc2[nH]cc(-c3cncc(O[C@@H]4CCCNC4)n3)c2cc1-c1csc(N2CCCC2)n1 [Example 553] | 0.52 | – | 0.077 | – | –
CN(C)C(=O)c1ccc2[nH]nc(-c3cncc(O[C@@H]4CCCNC4)n3)c2c1 [Example 556] | > 1 | – | > 1 | – | –
CN(C)C(=O)c1ccc2[nH]nc(-c3ccnc(O[C@@H]4CCCNC4)n3)c2c1 [Example 557] | > 1 | – | > 1 | – | –
COC(=O)c1ccc2[nH]nc(-c3cncc(NC4CCNCC4)n3)c2c1 [Example 559] | 0.001 | 0.202 | – | 8.12 | –
CC(C)OC(=O)c1ccc2[nH]nc(-c3cncc(NC4CCNCC4)n3)c2c1 [Example 560] | 0.005 | 0.394 | – | 4.78 | –
CN(C)C(=O)c1ccc2[nH]nc(-c3ccnc(NC4CCNCC4)n3)c2c1 [Example 561] | > 1 | – | > 1 | – | –
COc1cc(-c2c[nH]c3ccc(-c4c(F)cccc4F)cc23)nc(N2CCOCC2)n1 [Example 562] | > 1 | – | > 1 | – | –
COc1cc(N2CCC(N)CC2)nc(-c2c[nH]c3ccc(-c4c(F)cccc4F)cc23)n1 [Example 563] | 0.143 | – | 0.087 | – | –
